Measured values: the supplement of paper PMC10307832

Legend:
Experiment in all cases: relative viability (nuclei count vs DMSO), 5 days (fraction); higher = more cells survive
[1] = system: BEN
How it was run: (§1)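 Medians of duplicate plates are given as relative viability. That measure is the nuclei count in treated wells divided by the count in vehicle wells. Counts were taken on 4× images of lung cancer cell lines in 1536-well plates, 5 days after pin-tool dosing the day after seeding with one drug alone or a fixed anchor-drug dose plus five library-drug doses (not always all listed) in √10 steps.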

[2] = system: ChaGo-K-1
How it was run: as §1

[3] = system: EKVX
How it was run: as §1

[4] = system: HCC-827
How it was run: as §1

[5] = system: HOP-62
How it was run: as §1

[6] = system: LCLC-103H
How it was run: as §1

[7] = system: LK-2
How it was run: as §1

[8] = system: LOU-NH91
How it was run: as §1

[9] = system: LXF-289
How it was run: as §1

[10] = system: NCI-H1355
How it was run: as §1

[11] = system: NCI-H1437
How it was run: as §1

[12] = system: NCI-H1666
How it was run: as §1

[13] = system: NCI-H1944
How it was run: as §1

[14] = system: NCI-H1993
How it was run: as §1

[15] = system: NCI-H2126
How it was run: as §1

[16] = system: NCI-H2170
How it was run: as §1

[17] = system: NCI-H441
How it was run: as §1

[18] = system: NCI-H647
How it was run: as §1

[19] = system: NCI-H661
How it was run: as §1

[20] = system: NCI-H727
How it was run: as §1

[21] = system: PC-14
How it was run: as §1

[22] = system: RERF-LC-KJ
How it was run: as §1

[23] = system: SK-MES-1
How it was run: as §1

Molecule `CCNC(=O)c1noc(-c2cc(C(C)C)c(O)cc2O)c1-c1ccc(CN2CCOCC2)cc1` [Luminespib] + Cc1nc(Nc2ncc(C(=O)Nc3c(C)cccc3Cl)s2)cc(N2CCN(CCO)CC2)n1 [Dasatinib] (partner 0.075 µM) has a relative viability ([1]; first compound 0.002 µM) of 0.323, a relative viability ([1]; first compound 0.006325 µM) of 0.303 and a relative viability ([1]; first compound 0.02 µM) of 0.263. For the same molecule, the relative viability ([1]; first compound 0.06325 µM) was 0.334, the relative viability ([1]; first compound 0.2 µM) was 0.192 and the relative viability ([2]; first compound 0.002 µM) was 0.634. The relative viability ([2]; first compound 0.006325 µM) was 0.648, the relative viability ([2]; first compound 0.02 µM) was 0.539 and the relative viability ([2]; first compound 0.06325 µM) was 0.376. The relative viability ([2]; first compound 0.2 µM) was 0.143, the relative viability ([3]; first compound 0.002 µM) was 0.311 and the relative viability ([3]; first compound 0.006325 µM) was 0.509. For the same molecule, the relative viability ([3]; first compound 0.02 µM) was 0.403, the relative viability ([3]; first compound 0.06325 µM) was 0.515 and the relative viability ([3]; first compound 0.2 µM) was 0.393. The relative viability ([4]; first compound 0.002 µM) was 0.217, the relative viability ([4]; first compound 0.006325 µM) was 0.262 and the relative viability ([4]; first compound 0.02 µM) was 0.219. It also gave a relative viability ([4]; first compound 0.06325 µM) of 0.259, a relative viability ([4]; first compound 0.2 µM) of 0.117 and a relative viability ([5]; first compound 0.002 µM) of 0.734. For the same molecule, the relative viability ([5]; first compound 0.006325 µM) was 0.611, the relative viability ([5]; first compound 0.02 µM) was 0.603 and the relative viability ([5]; first compound 0.06325 µM) was 0.408. The relative viability ([5]; first compound 0.2 µM) was 0.102, the relative viability ([6]; first compound 0.002 µM) was 0.493 and the relative viability ([6]; first compound 0.006325 µM) was 0.491. For the same molecule, the relative viability ([6]; first compound 0.02 µM) was 0.41, the relative viability ([6]; first compound 0.06325 µM) was 0.536 and the relative viability ([6]; first compound 0.2 µM) was 0.529. For the same molecule, the relative viability ([7]; first compound 0.002 µM) was 0.267, the relative viability ([7]; first compound 0.006325 µM) was 0.293 and the relative viability ([7]; first compound 0.02 µM) was 0.251. For the same molecule, the relative viability ([7]; first compound 0.06325 µM) was 0.146, the relative viability ([7]; first compound 0.2 µM) was 0.128 and the relative viability ([8]; first compound 0.002 µM) was 0.517. For the same molecule, the relative viability ([8]; first compound 0.006325 µM) was 0.543, the relative viability ([8]; first compound 0.02 µM) was 0.388 and the relative viability ([8]; first compound 0.06325 µM) was 0.258. For the same molecule, the relative viability ([8]; first compound 0.2 µM) was 0.29, the relative viability ([9]; first compound 0.002 µM) was 0.271 and the relative viability ([9]; first compound 0.006325 µM) was 0.238. It also gave a relative viability ([9]; first compound 0.02 µM) of 0.187, a relative viability ([9]; first compound 0.06325 µM) of 0.0634 and a relative viability ([9]; first compound 0.2 µM) of 0.0395. It also gave a relative viability ([10]; first compound 0.002 µM) of 0.678, a relative viability ([10]; first compound 0.006325 µM) of 0.656 and a relative viability ([10]; first compound 0.02 µM) of 0.473. It also gave a relative viability ([10]; first compound 0.06325 µM) of 0.414, a relative viability ([10]; first compound 0.2 µM) of 0.153 and a relative viability ([11]; first compound 0.002 µM) of 0.421. It also gave a relative viability ([11]; first compound 0.006325 µM) of 0.316, a relative viability ([11]; first compound 0.02 µM) of 0.255 and a relative viability ([11]; first compound 0.06325 µM) of 0.252. It also gave a relative viability ([11]; first compound 0.2 µM) of 0.126, a relative viability ([12]; first compound 0.002 µM) of 0.873 and a relative viability ([12]; first compound 0.006325 µM) of 0.711. The relative viability ([12]; first compound 0.02 µM) was 0.904, the relative viability ([12]; first compound 0.06325 µM) was 0.85 and the relative viability ([12]; first compound 0.2 µM) was 0.748. The relative viability ([13]; first compound 0.002 µM) was 0.195, the relative viability ([13]; first compound 0.006325 µM) was 0.232 and the relative viability ([13]; first compound 0.02 µM) was 0.169. The relative viability ([13]; first compound 0.06325 µM) was 0.107, the relative viability ([13]; first compound 0.2 µM) was 0.132 and the relative viability ([14]; first compound 0.002 µM) was 0.633. The relative viability ([14]; first compound 0.006325 µM) was 0.534, the relative viability ([14]; first compound 0.02 µM) was 0.431 and the relative viability ([14]; first compound 0.06325 µM) was 0.331. For the same molecule, the relative viability ([14]; first compound 0.2 µM) was 0.353, the relative viability ([15]; first compound 0.002 µM) was 0.631 and the relative viability ([15]; first compound 0.006325 µM) was 0.606. For the same molecule, the relative viability ([15]; first compound 0.02 µM) was 0.399, the relative viability ([15]; first compound 0.06325 µM) was 0.206 and the relative viability ([15]; first compound 0.2 µM) was 0.221. It also gave a relative viability ([16]; first compound 0.002 µM) of 0.503, a relative viability ([16]; first compound 0.006325 µM) of 0.578 and a relative viability ([16]; first compound 0.02 µM) of 0.308. It also gave a relative viability ([16]; first compound 0.06325 µM) of 0.163, a relative viability ([16]; first compound 0.2 µM) of 0.106 and a relative viability ([17]; first compound 0.002 µM) of 0.579. It also gave a relative viability ([17]; first compound 0.006325 µM) of 0.649, a relative viability ([17]; first compound 0.02 µM) of 0.329 and a relative viability ([17]; first compound 0.06325 µM) of 0.132. The relative viability ([17]; first compound 0.2 µM) was 0.114, the relative viability ([18]; first compound 0.002 µM) was 0.199 and the relative viability ([18]; first compound 0.006325 µM) was 0.13. It also gave a relative viability ([18]; first compound 0.02 µM) of 0.13, a relative viability ([18]; first compound 0.06325 µM) of 0.0549 and a relative viability ([18]; first compound 0.2 µM) of 0.0598. The relative viability ([19]; first compound 0.002 µM) was 0.891, the relative viability ([19]; first compound 0.006325 µM) was 0.954 and the relative viability ([19]; first compound 0.02 µM) was 0.662. For the same molecule, the relative viability ([19]; first compound 0.06325 µM) was 0.286, the relative viability ([19]; first compound 0.2 µM) was 0.233 and the relative viability ([20]; first compound 0.002 µM) was 0.358. The relative viability ([20]; first compound 0.006325 µM) was 0.331, the relative viability ([20]; first compound 0.02 µM) was 0.257 and the relative viability ([20]; first compound 0.06325 µM) was 0.278. The relative viability ([20]; first compound 0.2 µM) was 0.304, the relative viability ([21]; first compound 0.002 µM) was 0.253 and the relative viability ([21]; first compound 0.006325 µM) was 0.272. It also gave a relative viability ([21]; first compound 0.02 µM) of 0.0443, a relative viability ([21]; first compound 0.06325 µM) of 0.0382 and a relative viability ([21]; first compound 0.2 µM) of 0.0374. The relative viability ([22]; first compound 0.002 µM) was 0.833, the relative viability ([22]; first compound 0.006325 µM) was 0.897 and the relative viability ([22]; first compound 0.02 µM) was 0.603. The relative viability ([22]; first compound 0.06325 µM) was 0.232, the relative viability ([22]; first compound 0.2 µM) was 0.234 and the relative viability ([23]; first compound 0.002 µM) was 0.333. The relative viability ([23]; first compound 0.006325 µM) was 0.376, the relative viability ([23]; first compound 0.02 µM) was 0.217 and the relative viability ([23]; first compound 0.06325 µM) was 0.0911. The relative viability ([23]; first compound 0.2 µM) was 0.0956.
